Common to all, as to experiment: KINOMEscan competition binding
For assay [1], the target named is CDK4 (Homo sapiens, UniProt P11802). The settings on record: read-out: %Inh CDK4.
The target of assay [2] is CDK5 (Homo sapiens, UniProt Q00535). The settings on record: read-out: %Inh CDK5.
Assay [3] addresses CSF1R (Homo sapiens, UniProt P07333). Particulars: read-out: %Inh CSF1R.
In assay [4] the target is T1, GAK (Homo sapiens, UniProt O14976).
T1 sequence (O14976 1-1311): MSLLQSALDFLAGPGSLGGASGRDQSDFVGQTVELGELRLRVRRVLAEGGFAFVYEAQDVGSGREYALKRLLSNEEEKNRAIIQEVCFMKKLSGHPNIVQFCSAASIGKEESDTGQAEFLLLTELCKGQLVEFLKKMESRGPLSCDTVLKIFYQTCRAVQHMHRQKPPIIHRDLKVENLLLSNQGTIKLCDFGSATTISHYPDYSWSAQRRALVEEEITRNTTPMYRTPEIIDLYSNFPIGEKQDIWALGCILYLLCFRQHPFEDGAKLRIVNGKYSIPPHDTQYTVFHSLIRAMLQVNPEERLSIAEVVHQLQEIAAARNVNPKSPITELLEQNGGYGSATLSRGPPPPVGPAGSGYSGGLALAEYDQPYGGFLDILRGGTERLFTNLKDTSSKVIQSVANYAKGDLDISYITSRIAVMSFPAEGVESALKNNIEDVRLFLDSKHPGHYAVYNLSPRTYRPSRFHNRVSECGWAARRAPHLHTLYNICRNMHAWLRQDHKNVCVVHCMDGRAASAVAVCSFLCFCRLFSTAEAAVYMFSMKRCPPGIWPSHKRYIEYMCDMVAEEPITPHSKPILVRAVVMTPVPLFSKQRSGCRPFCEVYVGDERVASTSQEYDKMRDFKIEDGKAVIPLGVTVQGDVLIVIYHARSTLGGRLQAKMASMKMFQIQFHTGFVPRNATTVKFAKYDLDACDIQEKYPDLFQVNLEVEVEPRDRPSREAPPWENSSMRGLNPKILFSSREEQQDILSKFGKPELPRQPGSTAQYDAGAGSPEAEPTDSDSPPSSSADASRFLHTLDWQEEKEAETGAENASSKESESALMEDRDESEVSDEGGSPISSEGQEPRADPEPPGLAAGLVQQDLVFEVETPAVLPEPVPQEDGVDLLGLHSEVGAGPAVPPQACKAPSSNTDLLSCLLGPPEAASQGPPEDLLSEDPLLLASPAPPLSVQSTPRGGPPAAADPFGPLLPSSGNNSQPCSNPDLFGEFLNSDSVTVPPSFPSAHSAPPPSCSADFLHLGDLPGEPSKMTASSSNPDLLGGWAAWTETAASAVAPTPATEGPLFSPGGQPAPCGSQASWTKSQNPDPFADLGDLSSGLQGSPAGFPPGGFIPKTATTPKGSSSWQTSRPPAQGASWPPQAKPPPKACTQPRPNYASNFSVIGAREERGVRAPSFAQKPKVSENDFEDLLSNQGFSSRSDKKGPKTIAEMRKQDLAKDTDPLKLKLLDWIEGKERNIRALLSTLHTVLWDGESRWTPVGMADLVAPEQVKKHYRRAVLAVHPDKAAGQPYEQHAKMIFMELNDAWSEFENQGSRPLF
Particulars: read-out: %Inh GAK.

In assay [5] the target is JAK1(JH2domain-pseudokinase) (Homo sapiens, UniProt P23458). Particulars: read-out: %Inh JAK1(JH2domain-pseudokinase).
Sequence of JAK1(JH2domain-pseudokinase) (P23458 578-855 limits assumed): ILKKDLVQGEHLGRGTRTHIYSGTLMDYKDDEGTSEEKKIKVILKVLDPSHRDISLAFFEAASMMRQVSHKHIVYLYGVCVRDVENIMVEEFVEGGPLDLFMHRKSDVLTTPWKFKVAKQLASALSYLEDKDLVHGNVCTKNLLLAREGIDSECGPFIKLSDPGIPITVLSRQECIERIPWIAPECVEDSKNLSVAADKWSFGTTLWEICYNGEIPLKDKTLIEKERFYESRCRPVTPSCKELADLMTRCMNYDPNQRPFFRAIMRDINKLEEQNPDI

Sequence of CDK5 (Q00535 whole entry): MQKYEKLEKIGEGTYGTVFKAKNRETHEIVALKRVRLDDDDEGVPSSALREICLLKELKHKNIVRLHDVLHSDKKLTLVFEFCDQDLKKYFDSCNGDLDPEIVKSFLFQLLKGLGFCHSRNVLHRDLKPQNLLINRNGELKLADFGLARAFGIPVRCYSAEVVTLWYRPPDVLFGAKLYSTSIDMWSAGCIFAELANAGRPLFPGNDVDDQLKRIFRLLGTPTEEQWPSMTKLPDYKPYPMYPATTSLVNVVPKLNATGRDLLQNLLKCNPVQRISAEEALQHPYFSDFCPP
Sequence of CDK4 (P11802 whole entry): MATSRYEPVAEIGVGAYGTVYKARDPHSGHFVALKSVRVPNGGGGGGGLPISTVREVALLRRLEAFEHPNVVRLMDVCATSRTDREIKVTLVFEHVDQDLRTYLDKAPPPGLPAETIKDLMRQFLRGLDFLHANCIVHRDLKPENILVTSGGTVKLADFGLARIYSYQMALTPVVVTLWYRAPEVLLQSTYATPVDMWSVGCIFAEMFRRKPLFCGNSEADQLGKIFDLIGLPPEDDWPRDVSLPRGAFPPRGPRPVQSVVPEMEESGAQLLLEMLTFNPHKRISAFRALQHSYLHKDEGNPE
Sequence of CSF1R (P07333 20-972): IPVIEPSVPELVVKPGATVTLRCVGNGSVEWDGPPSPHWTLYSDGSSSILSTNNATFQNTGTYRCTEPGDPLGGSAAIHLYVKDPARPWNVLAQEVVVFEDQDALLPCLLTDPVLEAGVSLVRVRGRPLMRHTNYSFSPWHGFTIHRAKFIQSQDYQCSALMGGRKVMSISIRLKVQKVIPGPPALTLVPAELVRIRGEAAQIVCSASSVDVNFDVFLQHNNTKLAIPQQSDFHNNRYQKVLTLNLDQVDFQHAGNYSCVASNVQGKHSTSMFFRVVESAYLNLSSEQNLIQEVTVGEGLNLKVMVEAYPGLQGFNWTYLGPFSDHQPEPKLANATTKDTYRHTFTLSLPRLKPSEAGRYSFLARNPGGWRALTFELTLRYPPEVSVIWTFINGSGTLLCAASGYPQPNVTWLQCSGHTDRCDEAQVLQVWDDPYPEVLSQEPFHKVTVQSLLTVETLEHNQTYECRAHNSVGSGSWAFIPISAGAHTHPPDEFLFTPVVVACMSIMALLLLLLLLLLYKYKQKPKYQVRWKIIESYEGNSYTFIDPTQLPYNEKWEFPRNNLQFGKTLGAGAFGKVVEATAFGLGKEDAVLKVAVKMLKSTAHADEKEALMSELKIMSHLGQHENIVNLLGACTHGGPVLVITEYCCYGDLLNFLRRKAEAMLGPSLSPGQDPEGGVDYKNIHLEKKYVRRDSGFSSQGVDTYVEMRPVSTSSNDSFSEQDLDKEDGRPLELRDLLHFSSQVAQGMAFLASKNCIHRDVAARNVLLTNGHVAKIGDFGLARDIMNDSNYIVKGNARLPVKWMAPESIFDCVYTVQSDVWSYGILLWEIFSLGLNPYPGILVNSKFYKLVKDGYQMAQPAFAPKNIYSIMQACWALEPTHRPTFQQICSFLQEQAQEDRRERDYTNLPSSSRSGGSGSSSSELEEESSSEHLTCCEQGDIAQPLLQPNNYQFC

Take `O=c1cc(N2CCOCC2)nc2n(Cc3cccc(Cl)c3Cl)c(C3CC3)nn12` [UNC10225469A]: the inhibition at 1 µM in assay [1] was found to be 0%; in assay [2], 7%; in assay [3] it was 0%; in assay [4] it was 11%; in assay [5], 3%.

In the case of `COc1cccc(OC)c1C(=O)Nc1cccc(-c2nn3ccccc3c2-c2ccnc(Nc3cccc(F)c3)n2)c1` [UNC10225310A], the inhibition at 1 µM in assay [1] was 0%; in assay [2], 21%; in assay [3], 60%; in assay [4], 6%; in assay [5] it was 4%.

For `CS(=O)(=O)Cc1ccc(Nc2nccc(-c3c(-c4cccc(NC(=O)C5CCCCC5)c4)nn4ncccc34)n2)cc1` [UNC10225159A], the inhibition at 1 µM in assay [1] was determined as 18%; in assay [2], 4%; in assay [3], 79%; in assay [4], 14%; in assay [5] it was 0%.

`Cc1ccc(NC(=O)Nc2cccc(C(F)(F)F)c2)cc1` [UNC10225187A]: the inhibition at 1 µM in assay [1] was found to be 0%; in assay [2] it was 0%; in assay [3] it was 0%; in assay [4], 0%; in assay [5], 12%.

For the compound `Cn1cc(-c2cnc(N)c3c(-c4ccc5c(c4)CCN5C(=O)Cc4ccccc4)csc23)cn1` [UNC10225012A], the inhibition at 1 µM in assay [1] came to 0%; in assay [2] it was 2%; in assay [3], 99.9%; in assay [4], 11%; in assay [5], 0%.

The record behind these values is PMC5540273, “Progress towards a public chemogenomic set for protein kinases and a call for contributions” (PLoS ONE, 2017).
